Data: PubChem BioAssay (NCI)
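Briefly, cells in 96-well plates were exposed to five compound concentrations for 48 h, and endpoints were estimated by linear interpolation. TGI is the concentration that stops growth completely.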

Assays:
Test in all cases: growth of human tumour cells (NCI), 48 h
SK-MEL-5 melanoma = system: SK-MEL-5 melanoma
HCT-15 colon = system: HCT-15 colon
SK-OV-3 ovarian = system: SK-OV-3 ovarian
NCI-H23 lung = system: NCI-H23 lung
SN12C renal = system: SN12C renal
CCRF-CEM leukemia = system: CCRF-CEM leukemia
MCF7 breast = system: MCF7 breast
M14 melanoma = system: M14 melanoma
SF-295 CNS = system: SF-295 CNS
TK-10 renal = system: TK-10 renal
HOP-62 NSCLC = system: HOP-62 NSCLC
U251 CNS = system: U251 CNS
COLO 205 colon = system: COLO 205 colon
HS 578T breast = system: HS 578T breast
K-562 leukemia = system: K-562 leukemia
RXF 393 renal = system: RXF 393 renal
UACC-257 melanoma = system: UACC-257 melanoma
SNB-75 CNS = system: SNB-75 CNS
A549 NSCLC = system: A549 NSCLC
SF-268 CNS = system: SF-268 CNS
RPMI-8226 leukemia = system: RPMI-8226 leukemia
IGROV1 ovarian = system: IGROV1 ovarian
NCI/ADR-RES ovarian = system: NCI/ADR-RES ovarian
MDA-N = system: MDA-N
OVCAR-3 ovarian = system: OVCAR-3 ovarian
HL-60(TB) leukemia = system: HL-60(TB) leukemia
SF-539 CNS = system: SF-539 CNS
SW-620 colon = system: SW-620 colon
BT-549 breast = system: BT-549 breast
OVCAR-5 ovarian = system: OVCAR-5 ovarian
T-47D breast = system: T-47D breast
MALME-3M melanoma = system: MALME-3M melanoma
UO-31 renal = system: UO-31 renal
KM12 colon = system: KM12 colon
ACHN renal = system: ACHN renal
PC-3 prostate = system: PC-3 prostate
HCT-116 colon = system: HCT-116 colon
NCI-H226 lung = system: NCI-H226 lung
EKVX NSCLC = system: EKVX NSCLC
786-0 renal = system: 786-0 renal
HOP-92 NSCLC = system: HOP-92 NSCLC
DU-145 prostate = system: DU-145 prostate
SK-MEL-28 melanoma = system: SK-MEL-28 melanoma
SNB-19 CNS = system: SNB-19 CNS
UACC-62 melanoma = system: UACC-62 melanoma
MOLT-4 leukemia = system: MOLT-4 leukemia
MDA-MB-435 = system: MDA-MB-435
OVCAR-8 ovarian = system: OVCAR-8 ovarian
SR leukemia = system: SR leukemia
OVCAR-4 ovarian = system: OVCAR-4 ovarian
A498 renal = system: A498 renal
NCI-H522 lung = system: NCI-H522 lung
HCC-2998 colon = system: HCC-2998 colon
MDA-MB-231 breast = system: MDA-MB-231 breast
NCI-H460 lung = system: NCI-H460 lung
HT29 colon = system: HT29 colon
CAKI-1 renal = system: CAKI-1 renal
LOX IMVI melanoma = system: LOX IMVI melanoma

Measured: TGI

Cc1ccc(C)n2c1nc1cc3ccccc3cc12
> 100 µM: HCT-15 colon | SK-OV-3 ovarian | NCI-H23 lung | SN12C renal | CCRF-CEM leukemia | M14 melanoma | SF-295 CNS | TK-10 renal | HOP-62 NSCLC | U251 CNS | COLO 205 colon | HS 578T breast | K-562 leukemia | RXF 393 renal | UACC-257 melanoma | A549 NSCLC | SF-268 CNS | RPMI-8226 leukemia | IGROV1 ovarian | NCI/ADR-RES ovarian | MDA-N | OVCAR-3 ovarian | HL-60(TB) leukemia | SF-539 CNS | SW-620 colon | BT-549 breast | OVCAR-5 ovarian | T-47D breast | MALME-3M melanoma | KM12 colon | ACHN renal | PC-3 prostate | HCT-116 colon | NCI-H226 lung | EKVX NSCLC | 786-0 renal | HOP-92 NSCLC | DU-145 prostate | SK-MEL-28 melanoma | SNB-19 CNS | MDA-MB-435 | OVCAR-8 ovarian | SR leukemia
94.4 µM: UO-31 renal
57.6 µM: SNB-75 CNS
95.1 µM: MOLT-4 leukemia
93 µM: SK-MEL-5 melanoma
57.1 µM: UACC-62 melanoma
16 µM: MCF7 breast

C=CCc1oc(C)nc1CCCC
> 100 µM: SK-MEL-5 melanoma | OVCAR-4 ovarian | HCT-15 colon | SK-OV-3 ovarian | A498 renal | NCI-H23 lung | SN12C renal | CCRF-CEM leukemia | NCI-H522 lung | MCF7 breast | M14 melanoma | SF-295 CNS | TK-10 renal | HOP-62 NSCLC | U251 CNS | COLO 205 colon | HS 578T breast | K-562 leukemia | HCC-2998 colon | RXF 393 renal | UACC-257 melanoma | SNB-75 CNS | A549 NSCLC | SF-268 CNS | MDA-MB-231 breast | IGROV1 ovarian | NCI-H460 lung | NCI/ADR-RES ovarian | MDA-N | OVCAR-3 ovarian | HL-60(TB) leukemia | HT29 colon | SF-539 CNS | CAKI-1 renal | SW-620 colon | BT-549 breast | OVCAR-5 ovarian | T-47D breast | MALME-3M melanoma | UO-31 renal | KM12 colon | ACHN renal | PC-3 prostate | HCT-116 colon | NCI-H226 lung | EKVX NSCLC | 786-0 renal | HOP-92 NSCLC | DU-145 prostate | LOX IMVI melanoma | SK-MEL-28 melanoma | SNB-19 CNS | UACC-62 melanoma | MOLT-4 leukemia | MDA-MB-435 | OVCAR-8 ovarian
